Laboratory results reported in patent publication US20250099486A1, “WOUND HEALING MEDICAMENT” (The University of Sheffield, priority 2017, published 2025).

Assays:
Assay type in all cases: in vivo, chicken (Gallus domesticus)
[1] = test system: CAM; test: Ex-ovo CAM assay, direct application of substances
Description: (§1) All CAM experiments were carried out according to the Home Office, UK guidelines. Fertilised chicken eggs (Gallus domesticus) were purchased from Henry Stewart & Co. (MedEggs, Norwich, UK). The eggs were carefully wiped with 20% industrial methylated spirit (IMS) solution using hand paper towels in order to remove dirt and feathers from the shell. The eggs were then incubated at 37.5° C. until embryonic development day (EDD) 3, lying horizontally in an humidified egg incubator (RCOM King SURO, P&T Poultry, Powys, Wales).
(§2) On EDD3, the upper surface of the eggs were marked with a felt pen. The eggs were held horizontally (with the marked surface on top) and cracked on the edge of a 1000 ml glass beaker and kept close to the bottom surface of petri dishes. The embryos were then transferred gently into sterile petri dishes and kept in a humidified incubator (Binder, Tuttlingen, Germany) at 38° C.
Plastic rings (˜6.5 mm in diameter) were used as a reservoir for substances and a marker for the implantation area, were placed on the CAM, and the substances were applied as 20 μl volume onto the CAM twice a day to give a […] between EDD7 and EDD11. Images of the rings were acquired using a digital microscope at EDD11, and then 20% lens culinaris agglutinin (LCA) (Vector Laboratories, Peterborough, UK) was injected into the circulation for labelling the intravascular endothelial cells using 30G needles under a dissection microscope (Wild Heerbrugg, Heerbrugg, Switzerland). CAMs were then removed and fixed in 3.7% formaldehyde solution. Embryos were sacrificed at the end of EDD11. Fixed CAM samples were then imaged under a confocal microscope (Zeiss LSM 510 Meta, Jena, Germany) for investigating the effect of substances on the microvascular structure of the CAMs.
Blood vessels were quantified by segmentation of the images [C. Roma-Rodrigues, A. Heuer-Jungemann, A. R. Fernandes, A. G. Kanaras, P. V. Baptista, Peptide-coated gold nanoparticles for modulation of angiogenesis in vivo, IntJ Nanomedicine. 11 (2016) 2633-2639. doi: 10.2147/IJN.S108661] so as to include all discernible vessels and then counting the branch points and calculating average vessel lengths [D. Ribatti, B. Nico, A. Vacca, M. Presta, The gelatin sponge-chorioallantoic membrane assay, Nat Protoc. 1 (2006) 85-91. doi: 10.1038/nprot.2006.13, P. Brooks, A. P. Montgomery, D. Cheresh, Use of the 10-Day-Old Chick Embryo Model for Studying Angiogenesis, Integrin Protoc. 129 (1999) 257-269. doi: 10.1385/1-59259-249-X: 257] via multiple image processing steps. Firstly, the internal area of the ring was cropped, and the red, green and blue channels were split using Adobe Photoshop CS6 (ADOBE Systems Inc., San Jose, California, USA). The green channel was then imported to ImageJ (Wayne Rasband, National Institutes of Health, USA) for further analysis including unsharp mask filtering, enhancing the local contrast, noise removal and segmentation. Finally, the number of branch points was quantified using quantification software (AngioTool, National Cancer Institute, USA) (FIG. 14A) and average blood vessel lengths were calculated by using binary image histograms with known pixel/mm ratios in ImageJ (Wayne Rasband, National Institutes of Health, USA).
The percentage vascular area (VA %) of the microvasculature of CAMs were quantified using confocal images of rhodamine labelled lectin injected CAM samples as shown in FIG. 14B. To do this, images were imported to ImageJ (Wayne Rasband, National Institutes of Health, USA) and converted to binary images after filtering and smoothing processes prior to quantification. VA % was calculated using the histogram list of black and white areas in the image.
All chemicals were purchased from Sigma Aldrich unless indicated otherwise. […]

[2] = test system: CAM; test: Ex-ovo CAM assay, implantation of E2 and 2dDR releasing PHBV scaffolds; settings: for mean vessel count: control 23.1 (±1.24)
Description: as §1, §2
Scaffolds were cut into 5.5 mm diameter circles using a laser cutting machine (Epilog Laser Cutter, Clevedon, UK) and sterilised under UV light for 1 hour prior to implantation. Two circular scaffolds were placed on CAM at EDD8. Images of the scaffolds were acquired using a digital microscope at EDD 12 and EDD14. Microinjection of rhodamine labelled lectin into the circulation was performed, CAMs were removed and fixed in 3.7% formaldehyde solution. Embryos were then sacrificed at the end of EDD14. Angiogenesis was quantified by counting all blood vessels that converged towards the graft.
Haematoxylin and Eosin (H&E) staining was performed on cell impregnated scaffolds by modifiying a standard protocol. Briefly, fixed samples were embedded in optimal cutting temperature OCT and frozen in liquid nitrogen for 3 minutes. Sections were cut 8-10 μm thick using a cryostat (Leica Biosystems Nussloch, Germany) at −20° C. Sections were then stained with haematoxylin for 90 seconds and eosin for 5 minutes respectively. Finally H&E images were acquired under a light microscope (Motic DM-B1, Xiamen, China). The total number of blood vessels adjacent to the scaffolds were quantified by counting blood vessels in H&E sections [A. Minajeva, M. Kase, M. Saretok, A. Adamson-Raieste, S. Kase, K. Niinepuu, M Vardja, T. Asser, J. Jaal, Impact of Blood Vessel Quantity and Vascular Expression of CD133 and ICAM-1 on Survival of Glioblastoma Patients, Neurosci J. 2017 (2017) 8 pages] Briefly, all discernible blood vessels adjacent to the scaffolds were counted by two independent researchers using two independent microscopes at 10× magnification from the total of six different slides for each group and six different area of interest from each slide.

[3] = test system: chorionic allantoic membrane (CAM); test: CAM assay of deoxy sugar-loaded biomaterials (in ovo, implanted day 8, scored day 14)
Description: Fertilized chicken (Gallus domesticus) eggs were purchased from Big Bird (Raiwind road, Lahore, Pakistan) and incubated at 37° C. from day 2 of fertilization until day 8 in a humidified egg incubator (HHD, 435, China). At day 8, a square window (1 cm^2) was cut into the shell and removed, and a 2 cm^2 piece of the electrospun scaffold or hydrogels (16% PCL electrospun scaffold/CS/PVA hydrogel/CS/collagen hydrogels) placed onto the CAM. Each egg was implanted with one scaffold or hydrogel only.
The shell window was closed with parafilm (Bemis Flexible Packaging, USA) and sealed with adhesive tape. After implantation, eggs were placed again at 37° C. in a 40% humidified incubator until day 14. At day 14, biomaterials were retrieved and the eggs were sacrificed. Angiogenesis was quantified by taking light microscope pictures just before scaffold retrieval and then blindly scored by four assessors using histological images of the retrieved materials. The number of implanted and survived eggs is given in the caption of respective CAM assay figures.
D and L isomers of three-deoxysugars (ribose, fucose and rhamnose) were loaded onto the porous freeze gelated triethyl orthoformate (4%) covalently cross-linked chitosan/collagen (1:1) hydrogels. The hydrogels were soaked in an aqueous solution of sugars (1 mg/ml) and were further lyophilized (freeze dried) to produce porous membranes. As for the electrospun scaffold, the hydrogels were grafted into the fertilized eggs at day 8 and after day 14 the eggs were sacrificed and the effect of sugars on angiogenesis was investigated.

## O=CC[C@H](O)[C@H](O)CO [2-deoxy-D-ribose]
[1]; 2dDR 20 μg/day
  increase of number of branch points: 1.3 times
[1]; 2dDR 200 μg/day
  increase of number of branch points: 1.4 times
[1]; 2dDR 200 μg/day, over 4 days, control 55.3%±3%
  percentage vascular area (VA %) of microvasculature: 71.7%±3%
[1]; 2dDR 1000 μg/day
  angiogenic response (average vessel length) compared to control: no significant difference
[1]; both 2dDR 20 μg/day and 200 μg/day
  increase of average vessel length: 1.2 times
[2]; 250 mg 2dDR loaded PHBV scaffolds
  mean vessel count: 48.6 (±1.02)
[2]; 500 mg 2dDR loaded PHBV scaffolds
  mean vessel count: 37.1 (±1.37)
[2]; all concentrations, compared with controls and CAM only groups
  mean number of blood vessels adjacent to the scaffolds (H&E sections): significantly increased
[2]; all groups of releasing PHBV scaffolds
  number of discernible blood vessels growing towards the scaffolds in comparison with plain PHBV scaffolds: at least doubled
[3]; loaded (1 mg/ml) in cross-linked chitosan/collagen hydrogels
  angiogenic response: strongly angiogenic
[3]; loaded in chitosan/PVA triethyl orthoformate cross-linked hydrogels
  angiogenesis compared to the control material: promoted angiogenesis
[3]; loaded in electrospun PCL fibers
  angiogenic potential (new blood vessels): growth of extensive new blood vessels under the material
